Data set [1] deals with CDK2/Cyclin A complex. Conditions: read-out: IC50, CDK2/Cyclin A complex; cited from earlier work.
For data set [2], the system named is CDK related biomarkers Cyclin A2, Cyclin B1 and Ki67. As to the kind of experiment: Pharmacodynamics: qRT-PCR on skin biopsies. Conditions: pre- vs post-treatment. The data set is classed as in vivo, human. (Quantitative PCR measures a nucleic acid by following its amplification.)
Data set [3] concerns animals. The following applies: high single or repeated doses; cited from earlier work.
Data set [4] relates to CDK1. The following applies: cited from earlier work.
Data set [5] concerns CDK7. The following applies: cited from earlier work.
The subject of data set [6] is CDK5. The following applies: cited from earlier work.

`CNC(=O)c1nn(C)c2c1C(C)(C)Cc1cnc(Nc3ccc(N4CCN(C)CC4)cc3)nc1-2` [PHA-848125AC, N,1,4,4-tetramethyl-8-{[4-(4-methylpiperazin-1-yl)phenyl]amino}-4,5-dihydro-1H-pyrazolo [4,3-h]quinazoline-3-carboxamide]: in data set [1], the IC50 was 45 nM. Further, the “modulation of CDK related biomarkers Cyclin A2, Cyclin B1 and Ki67” value in data set [2] is recorded as “down modulation”. In data set [3], the “neurological effects in animals” value was “tremors and increased reactivity to external stimuli”. The “inhibitory activity towards CDK1” value in data set [4] is listed as “inhibitory activity”. The “inhibitory activity towards CDK7” value in data set [5] is listed as “inhibitory activity”. The “inhibitory activity towards CDK5” value in data set [6] is listed as “inhibitory activity”.
